Reference: patent publication US11285130B2, “Treatment of mitochondrial diseases” (Khondrion IP B.V., priority 2017, dated 2022)
Like-named read-outs stand apart in the source and are kept apart here.

Experiments:
[1] = test system: primary human fibroblasts from patients with Leigh syndrome; experiment: Oxidative stress-induced cell death (BSO) assay, Leigh patient fibroblasts; type: cell-based; conditions: Homo sapiens, in vitro fibroblast assays (Redox assay), fibroblast type not given, values match Leigh
Description: (§1) To determine the effective concentration of the compounds (the concentrations that protect patient cells against oxidative stress-induced cell death) the applicant established an assay using stressed primary human fibroblasts from patients with Leigh syndrome, MELAS or LHON diseases. Utilising the inherent oxidative stress of fibroblasts from patients with mitochondrial disease, their oxidative burden was further increased by depleting cellular glutathione with an inhibitor of glutathione synthesis, L-buthionine-(S,R)-sulfoximine (BSO). […] Cells were seeded at a density of 3000 cells/well in a 96-well format and incubated with increasing concentrations of compounds in combination with BSO (100 μM, Sigma-aldrich). One day after treatment, the cells were washed twice and stained with a solution of 5 μM calcein-AM (Life technologies C3100MP) during 25 min in 199 medium without phenol red (Life technologies, 11043-023) at room temperature. After 2 washes with PBS (Phosphate buffered saline) the plate was read on a fluorescence plate reader (Fluostar Omega, BMG labtech) and the percentage of cell viability determined as a function of fluorescence intensity.

[2] = Phospholipidosis assessment in MAD study (urinary di-22:6-BMP, electron microscopy of peripheral leucocytes)
Protocol: Therefore, the presence of phospholipidosis was determined by the concentration of di-docosahexaenoyl (22:6)-bis(monoacylglycerol) phosphate (di-22:6-BMP) in a midstream urine sample and by electron microscopy of peripheral leucocytes at Day 1 and 7 in the MAD study (Pospischil A. et al, Exp. Toxicol Pathol 2010, 62:567-571).

[3] = test system: primary human fibroblasts from patients with LHON; experiment: Oxidative stress-induced cell death (BSO) assay, LHON patient fibroblasts; type: cell-based; conditions: Homo sapiens, Fibroblast; fibroblasts derived from LHON patients, 100 μM BSO; read-out: EC50, protection from oxidative stress-induced cell death
Description: as §1

[4] = Pharmacodynamic analysis of oxidized and reduced glutathione, MAD study; type: in vivo, human; conditions: Day 7, blood
Protocol: Blood samples for pharmacodynamic analyses were taken pre-dose and at 3, 6 and 24 h post dosing at Day 7 (MAD). All samples were stored in −80° C. until analysis. Quantification of oxidized and reduced glutathione was performed at York Bioanalytical solutions using a previously described validated method (Moore T et al, J Chromatogr B Analyt Technol Biomed Life Sci 2013, 929:51-55). Change from baseline in the concentrations of oxidized and reduced glutathione (GSH/GSSG) was calculated.

Protein binding = type: in vitro ADME
PgP efflux pump = PgP efflux pump (Homo sapiens, UniProt P08183); experiment: In vitro efflux; type: in vitro ADME
PgP efflux pump, sequence (P08183 whole entry): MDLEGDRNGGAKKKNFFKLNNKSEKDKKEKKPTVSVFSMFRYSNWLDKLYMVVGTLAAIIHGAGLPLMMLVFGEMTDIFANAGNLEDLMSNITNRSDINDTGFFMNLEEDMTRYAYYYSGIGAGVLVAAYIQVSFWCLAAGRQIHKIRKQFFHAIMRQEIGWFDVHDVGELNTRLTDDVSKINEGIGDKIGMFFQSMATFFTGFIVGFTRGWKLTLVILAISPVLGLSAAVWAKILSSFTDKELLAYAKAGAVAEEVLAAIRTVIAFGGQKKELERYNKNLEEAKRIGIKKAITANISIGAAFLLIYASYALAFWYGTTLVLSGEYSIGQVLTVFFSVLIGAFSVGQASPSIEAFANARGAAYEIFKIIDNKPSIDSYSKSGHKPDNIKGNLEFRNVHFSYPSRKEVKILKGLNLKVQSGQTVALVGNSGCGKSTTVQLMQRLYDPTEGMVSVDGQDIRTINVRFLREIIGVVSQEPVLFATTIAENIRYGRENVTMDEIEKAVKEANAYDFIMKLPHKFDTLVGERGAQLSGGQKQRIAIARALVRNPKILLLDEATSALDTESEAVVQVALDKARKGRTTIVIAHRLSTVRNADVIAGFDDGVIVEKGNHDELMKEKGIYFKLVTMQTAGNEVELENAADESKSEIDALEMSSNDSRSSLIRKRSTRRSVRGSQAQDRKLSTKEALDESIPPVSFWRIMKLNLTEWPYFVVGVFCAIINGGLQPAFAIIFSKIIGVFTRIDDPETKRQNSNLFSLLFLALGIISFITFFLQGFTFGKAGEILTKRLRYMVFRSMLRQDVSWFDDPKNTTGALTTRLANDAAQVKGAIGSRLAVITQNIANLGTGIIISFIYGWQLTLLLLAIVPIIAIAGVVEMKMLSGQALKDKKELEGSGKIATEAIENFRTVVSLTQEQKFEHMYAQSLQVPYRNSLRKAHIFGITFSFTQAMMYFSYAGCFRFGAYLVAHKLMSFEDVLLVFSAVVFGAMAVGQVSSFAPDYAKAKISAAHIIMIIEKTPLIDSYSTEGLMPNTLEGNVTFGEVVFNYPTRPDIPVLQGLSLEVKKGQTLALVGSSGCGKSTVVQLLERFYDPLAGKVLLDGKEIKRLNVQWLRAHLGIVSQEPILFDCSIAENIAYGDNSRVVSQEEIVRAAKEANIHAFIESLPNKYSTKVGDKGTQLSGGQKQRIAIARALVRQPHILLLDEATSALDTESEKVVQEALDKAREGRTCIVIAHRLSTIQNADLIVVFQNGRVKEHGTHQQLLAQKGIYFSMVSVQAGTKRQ

[5] = SAD study safety and tolerability (adverse events), healthy male volunteers
[6] = male, human, in vivo, 7 days
CYP3A4 = CYP3A4 (Homo sapiens, UniProt P08684); experiment: In vitro metabolism; type: in vitro ADME
CYP3A4, sequence (P08684 whole entry): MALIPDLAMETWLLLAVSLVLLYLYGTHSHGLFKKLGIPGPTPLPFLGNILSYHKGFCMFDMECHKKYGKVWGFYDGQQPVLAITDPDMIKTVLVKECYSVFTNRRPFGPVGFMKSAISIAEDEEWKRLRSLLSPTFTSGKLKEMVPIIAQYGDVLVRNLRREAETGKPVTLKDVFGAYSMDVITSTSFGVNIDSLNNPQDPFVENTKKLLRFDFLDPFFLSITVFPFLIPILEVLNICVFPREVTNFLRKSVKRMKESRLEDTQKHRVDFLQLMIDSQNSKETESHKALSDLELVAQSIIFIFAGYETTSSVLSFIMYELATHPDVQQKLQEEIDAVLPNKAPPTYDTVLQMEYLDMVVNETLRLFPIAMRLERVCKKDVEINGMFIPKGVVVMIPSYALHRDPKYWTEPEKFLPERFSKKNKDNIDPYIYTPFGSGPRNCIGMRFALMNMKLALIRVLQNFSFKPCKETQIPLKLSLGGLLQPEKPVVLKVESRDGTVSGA

[7] = male, human, in vivo
Protocol: The changes from baseline (pre-dose assessment on Day 1) for body weight, physical examinations, vital signs, ECG-variables and clinical laboratory variables were determined for each time point. Treatment-emergent laboratory and ECG abnormalities as well as adverse events were monitored throughout the study, up to 28 Days after the last study drug intake.
The goal of this post-hoc optimization study was to repeat the ECG assessment with an highly automated computer-assisted approach where in addition to the re-evaluation of standard intervals (PR, QRS and QT intervals), a set of parameters describing repolarization morphology were considered. The morphology indices were the TpTe interval (interval from the T wave apex to the end of the T wave), the TpTe/QT index (the ratio between the TpTe interval and the QT interval), Tamp (the amplitude in microvolt units of the T wave) and TSym (an index of repolarization morphology based on the symmetry of the T wave).
ECGs were digitally recorded using a Schiller AT104 ECG machine (500 Hz, 1 μV). Cardiac interval measurements were performed on the Global Superimposed Median Beat (GSMB), a methodology that allows measurements that consider each of the 12 individual median beats. This measurement methodology ensures that the PR, QRS, and QT interval are measured from the earliest onset in any lead to the latest deflection in any lead. Cardiologist overview of the computer-based measurements is based on the superimposed (overlapped) display of the individual median beats, to assure measurements are performed at the earliest onset of any viable lead to the latest offset of any viable lead.
The RR interval used for heart-rate correction of the QT interval (QTcB) was based on all the beats in the ten second recording. […]
For the pre-dose (baseline) ECGs, all parameters per time point were calculated as the averages of the triplicate ECGs. […]
The over-reading cardiologist provided a clinical interpretation for each ECG at each time point. […]

## Cc1c(C)c2c(c(C)c1O)CC[C@@](C)(C(=O)N[C@@H]1CCCNC1)O2.Cl [KH176, (S)-6-hydroxy-2,5,7,8-tetramethyl-N-((R)-piperidin-3-yl)chroman-2-carboxamide hydrochloride]
[1]; read-out: EC50
  EC50: 182 nM
[1]; read-out: EC50 expressed
  EC50: ~0.06 µg/mL
[2]; MAD group III (100 mg BID)
  di-22:6-BMP in urine, change from Day 1 to Day 7: 0.74-2.50 ng/mg creatinine
[2]; MAD group IV (200 mg BID)
  di-22:6-BMP in urine, change from Day 1 to Day 7: −1.44-1.32 ng/mg creatinine
[2]; MAD group V (400 mg BID)
  di-22:6-BMP in urine, change from Day 1 to Day 7: −0.69-1.46 ng/mg creatinine
[2]; in vivo
  prevalence of phospholipidosis in granulocytes or monocytes by electron microscopy: No increased prevalence
[3]
  EC50: 49 nM
[4]
  GSH/GSSG ratio, change from baseline: No significant alterations
Protein binding
  fraction unbound: 0.4 to 0.5
PgP efflux pump
  efflux / excretion: excreted by the PgP efflux pump
[5]; SAD 10 mg (N = 4)
  TEAE: Influenza like illness (subjects): 0 n (%)
[5]; SAD 30 mg (N = 4)
  TEAE: Influenza like illness (subjects): 0 n (%)
[5]; SAD 100 mg (N = 4)
  TEAE: Influenza like illness (subjects): 0 n (%)
[5]; SAD 100 mg + Food (N = 4)
  TEAE: Influenza like illness (subjects): 0 n (%)
[5]; SAD 300 mg (N = 4)
  TEAE: Influenza like illness (subjects): 0 n (%)
[5]; SAD 800 mg (N = 6)
  TEAE: Influenza like illness (subjects): 0 n (%)
[5]; SAD 2000 mg (N = 4)
  TEAE: Influenza like illness (subjects): 0 n (%)
[6]
  AEs rated mild in severity: 27
  moderate AEs: 2
  subjects reporting AEs: 10 subjects
CYP3A4
  metabolism: metabolized by CYP3A4
[7]
  KH176 exposure with no significant prolongation of the TpTe interval compared to placebo: lower than 500 ng/ml
  plasma concentrations at which effects on repolarization seem to start: 500 to 1000 ng/mL
[7]; 1 h
  QTcF, largest median baseline increase: 46.8 ms
